Laboratory results published in patent publication US11484558B2, “Epizootic hemorrhagic disease virus—tel aviv university (EHDV-TAU)—oncolytic virus for treating cancer” (Ramot at Tel-Aviv University Ltd., priority 2017, dated 2022).

Columns and labels:
LNCaP-JAK1 cells [1] = assay: Trypan blue exclusion assay of LNCaP-JAK1 cells; format: cell-based, human
Method: Graph depicts mean±SE (n=5) of the percentage of trypan blue permeable cells with and without IFNα. **p<0.005.
Graph depicts mean±SE (n=10).**p<0.005; ns, non-significant.
In the presence of Q-VD-OPh (throughout pre-treatment and infection). **p<0.01.
The indicated cells were treated and infected as in FIG. 9B, and the percentage of dead cells was determined by trypan blue exclusion assay. Graph depicts mean±SE of the percentage of dead cells with and without IFNγ (n=3). **p<0.005; ns (non-significant).
Trypan blue exclusion assay—2×10^5 LNCaP cells/well in a 12-well plate were infected, or not, under the indicated experimental conditions. For each well, detached and attached cells were collected together and mixed with 0.5% trypan blue at a 1:1 ratio. Cells were classified by trypan blue exclusion by light microscopy. Trypan blue (0.5%) was from Beit Haemek Biological Industries, Israel (cat. #03-102-1B).

LNCaP cells [2] = assay: Preliminary experiments, toxicity of TSA to LNCaP cells; format: cell-based, human; details: longer incubation periods (84 to 96 hours)
DU145 cells [3] = assay: Immunofluorescence of NS3-positive infected DU145 cells with or without IFNα; format: cell-based, human; details: DU145, IFNα 200 U/ml for 45 hours
Method: (§1) Quantification of percentage NS3 positive cells was from multiple (n=5) randomly selected fields, imaged under the same conditions as in FIG. 4D; *p<0.05.
(§2) Immunofluorescence—DU145 or LNCaP cells were seeded (5×10^4 cells/well) onto glass coverslips placed in a 24-well plate, and were infected, or not, with EHDV-TAU-LNCaP, in the presence or absence of IFNα. At 44 hours post infection (hpi) or 2 hours (for IFNα treatment), cells were washed twice with cold PBS (4° C.), fixed (4% paraformaldehyde for 20 minutes), blocked and permeabilized (PBS 1%/BSA 0.1%/Triton 0.1% (PBS/BSA/T) for 30 minutes), and stained with polyclonal anti-NS3 (1:300 dilution in PBS/BSA/T). Alexa-488 or 555-conjugated goat-anti-rabbit antibodies (1:200 dilution in PBS/BSA/T) were used as secondary antibodies. In order to detect nuclear phosphorylated STAT1, cells were fixed (4% paraformaldehyde for 20 minutes) and permeabilized with ice-cold methanol (10 minutes at −20° C.). Cells were stained with Rabbit-anti phospho-Tyr701-STAT1 (1:100 dilution in PBS/BSA/T) for overnight at 4° C. Mounting was with Fluorescence Mounting Medium (Golden Bridge, Mukilteo, Wash., USA, cat. #E1818).

LNCaP cells [4] = assay: Immunofluorescence of NS3-positive infected LNCaP cells with or without IFNα; format: cell-based, human; details: IFNα 200 U/ml for 45 hours
Method: as §1, §2

DU145 cells [5] = assay: Virus-induced death of DU145 cells with IFN; format: cell-based, human; details: DU145, IFN alone
LNCaP cells [6] = assay: IFNα-mediated STAT1 phosphorylation in LNCaP cells (immunoblot); format: cell-based, human
DU145 cells [7] = assay: IFNα-mediated STAT1 phosphorylation in DU145 cells (immunoblot); format: cell-based, human
LNCaP cells [8] = format: cell-based, human
LNCaP-JAK1 cells [9] = assay: IFNα-induced pSTAT1 in LNCaP-JAK1 cells (immunoblot); format: cell-based, human; details: LNCaP-JAK1, 200 U/ml for 2 hours
LNCaP-JAK1 cells [10] = assay: qRT-PCR of IFIT5 and IRF7 in LNCaP-JAK1 cells after IFNα; format: cell-based, human; details: LNCaP-JAK1, IFNα 200 U/ml for 24 hours
Method: The average expression level of untreated cells was taken as 1. *p<0.05.
qRT-PCR—Total RNA was extracted from cells using EZ-RNA kit (Biological Industries, Israel, cat. #20-400-100) according to the manufacturer's instructions. First-strand cDNA synthesis was performed using the iScript cDNA Synthesis Kit (Bio Rad cat. #1708890) according to the manufacturer's instructions, with additional no-RNA control. Real-Time PCR analyses of mRNA levels of the genes of interest, relative to GAPDH mRNA levels were performed in triplicates, using Fast SYBR-green master mix (Applied Biosystems, cat. #4385612) with StepOnePlus Real-Time PCR System (Applied Biosystems, cat. #4376600). Primers were designed to span exon-exon junctions and to produce 80-140 bp amplicons. Gene expression values were calculated based on the comparative threshold cycle method.

LNCaP-JAK1 cells [11] = format: cell-based, human
LNCaP-JAK1 cells [12] = assay: SILAC proteome analysis of LNCaP-JAK1 cells; details: for number of ISGs upregulated (of 50 ISGs): LNCaP-JAK1, cytokine treatment alone
Method: Stable Isotope Labeling by Amino Acids Analysis (S/LAC)—LNCaP and LNCaP-JAK1 cells were grown in RPMI devoid of lysine and arginine (Thermo, Cat. #A2494401), supplemented with 10% dialyzed FCS (Biological Industries, cat. #04-011-1A) and antibiotics for ten cell divisions (^˜3 weeks). “Heavy” culture medium was supplemented with ^13C6^15N2-lysine (146 mg/ml, cat. #CNLM-291-H) and ^13C6^15N4-arginine (84 mg/ml cat. #CNLM-539-H) both from Cambridge Isotope Laboratories. “Light” labeled culture medium was supplemented with unmodified lysine and arginine at the same concentrations. To avoid potential bias in the analysis, in any given condition, cultures were labeled with heavy (H) or light (L) amino acids; or with the reciprocal labeling. Each H-L pair was repeated twice. Thus, quantification of each condition was based on four independent replicates. Labeled cells, either treated or untreated, were trypsinized, counted, and washed twice in cold PBS. Samples were digested by trypsin and analyzed by Liquid chromatography tandem-mass spectrometry (LC-MS/MS) on Q Exactive hybrid quadrupole-Orbitrap mass spectrometer (Thermo Scientific). The data were analyzed and quantified with MaxQuant 1.5.2.8, using the human Uniprot database. Proteins were identified with false discovery rate (FDR)<0.01.

LNCaP-JAK1 cells [13] = assay: Cell cycle analysis (sub-G1, PI, FACS) of LNCaP-JAK1 cells; format: cell-based, human; details: LNCaP-JAK1, IL-6 treatment
Method: RPMI (supplemented with 10% FCS, 10 ml) was added post-fixation, after which cells were pelleted, washed twice with cold PBS and re-suspended in PBS supplemented with RNase A (20 μg/ml, 30 minutes). Following additional pelleting, cells were re-suspended in Propidium Iodide (P1) solution (50 μg/ml in PBS) and analyzed by FACS (Becton Dickinson).

LNCaP cells [14] = assay: SILAC proteome analysis of LNCaP cells; details: IL-6 5 ng/ml for 16 hours
LNCaP-JAK1 cells [15] = assay: Immunoblot of STAT1 and STAT3 phosphorylation after IFNγ in LNCaP-JAK1 cells; format: cell-based, human; details: LNCaP-JAK1, IFNγ 25 ng/ml for 20 minutes
Method: LNCaP and LNCaP-JAK1 cells were exposed to 25 ng/ml of IFNγ for 20 minutes.

## COC(=O)CC(NC(=O)C(NC(=O)c1ccc2ccccc2n1)C(C)C)C(=O)COc1c(F)cccc1F (stereo not shown) [Q-VD-OPh, Quinolyl-valyl-O-methylaspartyl-[-2,6-difluorophenoxy]-methyl ketone, reference compound]
LNCaP-JAK1 cells [1]; LNCaP-JAK1, Q-VD-OPh 20 μM, regardless of the presence of IL-6
  effect of caspase inhibition on death of infected cells: to basal levels

## CC(/C=C/C(=O)NO)=C\[C@@H](C)C(=O)c1ccc(N(C)C)cc1 [TSA, trichostatin A]
LNCaP cells [2]
  toxicity to LNCaP cells: toxic

## IFNα
DU145 cells [3]
  effect of IFNα on NS3 signal of EHDV-TAU-LNCaP-infected cultures: abrogated the NS3 signal
LNCaP cells [4]
  effect of IFNα on EHDV-TAU-LNCaP infection: negligible effects
DU145 cells [5]
  protection from virus-induced death: significantly protect
LNCaP cells [6]; 200 U/ml for 4 hours
  pSTAT1 in response to IFNα: only residual pSTAT1 levels
LNCaP cells [6]; 30 minutes post stimulation with 200 U/ml IFNα
  increase in pSTAT1 levels: 4.2±2.5 fold
DU145 cells [7]; DU145, 200 U/ml for 4 hours
  STAT1 phosphorylation in response to IFNα: robust STAT1 phosphorylation
DU145 cells [7]; DU145, 30 minutes post stimulation with 200 U/ml IFNα
  increase in pSTAT1 levels: 18±11 fold
LNCaP cells [8]
  activation of ISRE luciferase reporter: 1.2±0.1 fold
LNCaP-JAK1 cells [9]
  pSTAT1 levels upon IFNα stimulation: dramatic increases in pSTAT1 levels
LNCaP-JAK1 cells [10]
  expression of IFIT5 and IRF7: marked induction
LNCaP-JAK1 cells [11]
  effect on production of infectious virions: inhibited production of infectious virions
LNCaP-JAK1 cells [1]; LNCaP-JAK1, IFNα 200 U/ml
  effect on EHDV-TAU-LNCaP-induced cell death: protection from EHDV-TAU-LNCaP-induced cell death was observed
LNCaP-JAK1 cells [12]
  number of ISGs upregulated (of 50 ISGs): 17
LNCaP-JAK1 cells [12]; LNCaP-JAK1 compared to parental LNCaP cells
  enrichment of ISGs in IFNα-induced proteome changes: 24.4%

## IL-6: Human IL-6 (PeproTech), pleiotropic cytokine
LNCaP-JAK1 cells [13]
  percentage of cells exhibiting sub-G1 DNA content: slight increase
LNCaP cells [14]
  number of ISGs upregulated (of 50 ISGs): 3
LNCaP-JAK1 cells [12]
  number of ISGs upregulated (of 50 ISGs): 16

B1: IFNγ: human IFNγ (PeproTech) (protein, UniProt P01579 24-161, looked up)
Interferon gamma: QDPYVKEAENLKKYFNAGHSDVADNGTLFLGILKNWKEESDRKIMQSQIVSFYFKLFKNFKDDQSIQKSVETIKEDMNVKFFNSNKKKRDDFEKLTNYSVTDLNVQRKAIHELIQVMAELSPAAKTGKRKRSQMLFRG
LNCaP-JAK1 cells [1]; LNCaP-JAK1, IFNγ 25 ng/ml
  effect on death of infected cells: supported oncolysis by non-productive viral infection
LNCaP-JAK1 cells [15]
  STAT activation: activated STAT1 (but not STAT3)
LNCaP-JAK1 cells [12]; LNCaP-JAK1, IFNγ 25 ng/ml, 14 hours
  number of ISGs induced: 35
